# Reference: patent publication US12409174B2, “Combination of zibotentan and dapagliflozin for the treatment of endothelin related diseases” (priority 2020, dated 2025)
# How the values were obtained:
# [1] = Zibotentan and dapagliflozin blood concentrations, Experiment 2; details: male, Wistar, rat, Exp 2; for concentration at 4 h: 4 hr post first dose
# Procedure: In the second experiment (Experiment 2), the effect of zibotentan and dapagliflozin (alone or in combination) on Hct concentration and Hb was determined. Seventy-two animals were randomized on BW and Hct concentration, 2 to 3 days prior to administration of study drugs into the following groups; 1) Vehicle, 2) Zibotentan (30 mg/kg), 3) Zibotentan (100 mg/kg), 4) Dapagliflozin (3 mg/kg), 5) Zibotentan (30 mg/kg)+Dapagliflozin (3 mg/kg) and 6) Zibotentan (100 mg/kg)+Dapagliflozin (3 mg/kg). For practical reasons, the study was conducted in two consecutive slots with 36 animals (6/group) in each slot. Compounds were administered p.o. QD for seven days. Blood samples for bioanalysis were collected at 4 and 24 hr after the first dose and 24 hr after the final dose for Hct concentration and Hb analysis on day three and seven as described for exp.1. Twenty-four hour urine was collected between the third and fourth dose. 24 hr food and water intake was measured between day 2-3 and between day 6-7. With two animals per cage, food intake and water intake per animal in a cage was assessed by dividing the food intake and water intake of a cage by two.
# The blood and urine concentrations of zibotentan and dapagliflozin were determined by a bioanalytical method using liquid chromatography with mass spectrometric detection (LC-MS/MS).
# Whole blood samples for bioanalysis of dapagliflozin and zibotentan followed the same procedure. A volume of 20 μL whole blood was precipitated with 150 μL acetonitrile containing internal standard and quickly vortexed, followed by a 20 min centrifugation at 3220 g and 4° C. The supernatant was transferred to a fresh deep well plate and diluted 1:1 with water prior to LC-MS analysis. Matrix matched calibration samples and blanks were treated in the same way as study samples. Zibotentan samples were further diluted twice and three times at a 1:10 ratio with 33% acetonitrile, to ensure all diluted samples were detectible within the calibration range.
# Sample concentrations were determined against matrix-spiked calibration standards over a range of 0.010 μM-10.0 μM for dapagliflozin and 0.75 μM-376 μM for zibotentan, applying weighted linear regression (1/X^2) using Waters TargetLynx software version XS V4.2 SCN986.
# Samples were analyzed by using reversed-phase high-pressure liquid chromatography with rapid gradient elution. Compounds were detected with Waters Xevo TQ-S triple quadrupole mass spectrometer (Waters Corporation, Milford, MA, USA). The chromatographic separation was performed by an ACQUITY BEH C18 1.8 μM, 2.1×50 mm column at a temperature of 40° C. Mobile phase A was 2% acetonitrile and 0.2% formic acid in water (A), and mobile phase B was 0.2% formic acid in acetonitrile (B). Separation was achieved using the following elution gradient: 0 min to 1.5 min, 4% B ramping up to 95% B; 1.5 min to 2.3 min, kept at 95% B; 2.3 min to 2.4 min, 95% B to 4% B and kept at 4% B until 2.7 min. The flow rate was 0.7 mL/min.
# Samples were analyzed by reversed-phase high-pressure liquid chromatography with rapid gradient elution. Compounds were detected with Waters Xevo TQ-S triple quadrupole mass spectrometer (Waters Corporation, Milford, MA, USA). Mobile phase A was 1M ammonium acetate/acetonitrile/water (0.1/2/97.5, v/v/v), and mobile phase B was 1M ammonium acetate/acetonitrile (0.1/99.5, v/v). Separation was performed by an ACQUITY BEH C18 1.8 μM, 2.1×50 mm column from Waters using the following gradient: 0 min to 2.5 min, 4% B ramping to 60% B; 2.5 min to 2.9 min, 60% B to 95% B; 2.9 min to 3.4 min kept at 95% B, and from 3.4 to 3.5 min mobile phase B was returned to 4% B and kept at 4% B until 4 min. The flow rate was 0.6 mL/min and column temperature was 40° C.
# [2] = tested on: male Wistar rats on 4% salt diet; assay: Effect of zibotentan on haematocrit (Hct) concentration, Experiment 1; type: in vivo; details: Exp 1; for Hct concentration compared to vehicle: FIG. 4
# Procedure: The effect of dapagliflozin and zibotentan on haematocrit (Hct) concentration in male Wistar rats on 4% salt diet was investigated.
# (§1) In the first experiment (Experiment 1), the effect of zibotentan on haematocrit (Hct) concentration was determined when zibotentan was administered peroral (p.o) QD for 14 days. […] Animals were weighed daily prior to dosing throughout the experiment. Blood samples (20 μL) for bioanalysis were taken at 4 and 24 hr after the first dose via the tail vein from conscious animals and 24 hr after the last dose via retroorbital route from anesthetized animals. Blood samples were collected via tail vein (100 μL) for Hct concentration and haemoglobin (Hb) measurements, on day 7 and on day 14, 1-2 hr after dosing. Twenty-four hour urine was collected for the measurement of urinary glucose, urine volume and electrolytes between doses nine and ten. Animals were terminated 24 hr after the last dose. On the day of termination, animals were anesthetized using 5% isoflurane, and blood was collected via the retroorbital route (in heparin-coated microvette, Sarsted) and centrifuged at 3,500 rpm at 4° C. for 10 minutes, plasma was collected and stored at −80° C. degrees prior to analysis. Animals were then euthanized by the removal of the heart. Both the heart and the kidneys were extracted and weighed. From the right kidney, a 4 mm thick slice of tissue was collected and fixed in 4% formaldehyde for subsequent histological analysis and a piece of cortical kidney tissue and heart tissue was collected for gene expression analysis.
# For Hct and Hb analysis, 100 μl of blood from rat's tail vein was collected and measured using CG8 cartridges analysed with an iSTAT instrument (Abbott Point of Care Inc, Abbot Park, IL, USA).
# (§2) Significance was set at p<0.05.
# [3] = tested on: male Wistar rats on 4% salt diet; assay: Effect of zibotentan on urinary volume and Na, K, urea, creatinine, glucose in the urine, Experiment 1; type: in vivo; details: Exp 1; for Urine Creatine / Urine Glucose / Urine K / Urine Na / Urine Urea / Urine volume: 24 hr urine between doses nine and ten
# Procedure: as §1
# Plasma and Urine Albumin, Creatinine, Glucose, Urea, Potassium and Sodium levels were analyzed using an ABX Pentra 400 instrument (Horiba Medical, Irvine, California, USA) according to the manufacturers protocol.
# as §2
# [4] = treatment of prostate cancer; development stopped in 2011; cited from earlier work
compound,measurement,setting,value
"CCOc1ccc(Cc2cc([C@@H]3O[C@H](CO)[C@@H](O)[C@H](O)[C@H]3O)ccc2Cl)cc1 [Dapa, (1S)-1,5-anhydro-1-{4-chloro-3-[(4-ethoxyphenyl)methyl]phenyl}-D-glucitol]",concentration at 24 h,"[1]; whole blood, oral, 3 mg/kg, Dapagliflozin blood concentration, Dapa 3 mg/kg p.o. QD 7 days, 24 hr post last dose",0.048 µM
same,concentration at 4 h,"[1]; whole blood, oral, 3 mg/kg, Dapagliflozin blood concentration, Dapa 3 mg/kg p.o. QD",1.94 µM
same,concentration at 24 h,"[1]; whole blood, oral, 3 mg/kg, Dapagliflozin blood concentration, Dapa 3 mg/kg p.o. QD, 24 hr post first dose",0.086 µM
"COc1nc(C)cnc1NS(=O)(=O)c1cccnc1-c1ccc(-c2nnco2)cc1 [Zibo, N-(3-methoxy-5-methylpyrazin-2-yl)-2-[4-(1,3,4-oxadiazol-2-yl)phenyl]pyridine-3-sulfonamide]",concentration at 24 h,"[1]; in vivo, 30 mg/kg, Zibotentan blood concentration, Zibo 30 mg/kg p.o. QD 7 days, 24 hr post last dose",22.9 µM
same,concentration at 4 h,"[1]; in vivo, 30 mg/kg, Zibotentan blood concentration, Zibo 30 mg/kg p.o. QD",61.1 µM
same,concentration at 24 h,"[1]; in vivo, 30 mg/kg, Zibotentan blood concentration, Zibo 30 mg/kg p.o. QD, 24 hr post first dose",7.8 µM
same,concentration at 24 h,"[1]; in vivo, 100 mg/kg, Zibotentan blood concentration, Zibo 100 mg/kg p.o. QD 7 days, 24 hr post last dose",136 µM
same,concentration at 4 h,"[1]; in vivo, 100 mg/kg, Zibotentan blood concentration, Zibo 100 mg/kg p.o. QD",161 µM
same,concentration at 24 h,"[1]; in vivo, 100 mg/kg, Zibotentan blood concentration, Zibo 100 mg/kg p.o. QD, 24 hr post first dose",63.9 µM
same,Hct concentration compared to vehicle (significant decrease?),"[2]; zibotentan 30 mg/kg p.o. QD, day 14",not for the lower dose
same,Hct concentration compared to vehicle,"[2]; zibotentan 30, 100 and 300 mg/kg p.o. QD, day 7",significant (p<0.05) decrease
same,Hct concentration compared to vehicle,"[2]; zibotentan 100 and 300 mg/kg p.o. QD, day 14",significant (p<0.05) decrease
same,Urine Creatine,[3]; Zibo 30 mg/kg p.o. QD,88.8 ± 3.3 µmol
same,Urine Glucose,[3]; Zibo 30 mg/kg p.o. QD,0.01 ± 0.0 mmol
same,Urine K,[3]; Zibo 30 mg/kg p.o. QD,1.57 ± 0.05 mmol
same,Urine Na,[3]; Zibo 30 mg/kg p.o. QD,14.05 ± 0.95 mmol
same,Urine Urea,[3]; Zibo 30 mg/kg p.o. QD,6.19 ± 1.71 mmol
same,Urine volume,[3]; Zibo 30 mg/kg p.o. QD,28.19 ± 2.99 mL
same,Urine Creatine,[3]; Zibo 100 mg/kg p.o. QD,82.8 ± 2.5 µmol
same,Urine Glucose,[3]; Zibo 100 mg/kg p.o. QD,0.02 ± 0.0 mmol
same,Urine K,[3]; Zibo 100 mg/kg p.o. QD,1.52 ± 0.06 mmol
same,Urine Na,[3]; Zibo 100 mg/kg p.o. QD,13.01 ± 1.07 mmol
same,Urine Urea,[3]; Zibo 100 mg/kg p.o. QD,4.04 ± 0.39 mmol
same,Urine volume,[3]; Zibo 100 mg/kg p.o. QD,23.88 ± 2.02 mL
same,Urine Creatine,[3]; Zibo 300 mg/kg p.o. QD,82.9 ± 3.3 µmol
same,Urine Glucose,[3]; Zibo 300 mg/kg p.o. QD,0.18 ± 0.1 mmol
same,Urine K,[3]; Zibo 300 mg/kg p.o. QD,1.44 ± 0.03 mmol
same,Urine Na,[3]; Zibo 300 mg/kg p.o. QD,13.76 ± 0.76 mmol
same,Urine Urea,[3]; Zibo 300 mg/kg p.o. QD,4.60 ± 0.19 mmol
same,Urine volume,[3]; Zibo 300 mg/kg p.o. QD,29.09 ± 2.74 mL
same,"Level of urinary volume, Na, K, urea, creatinine and glucose compared to vehicle",[3]; different doses of zibotentan,no change
same,Efficacy in Phase 3,[4],insufficient efficacy
